The target in experiment [1] is T1, lecA (Pseudomonas aeruginosa, UniProt Q05097). The experiment is described as follows: Isothermal titration calorimetry (ITC), binding to lecA. To be noted: for ΔG / ΔH / β/N (improvement in affinity relative to the methyl glycoside, divided by the valency) / −TΔS / n (stoichiometry): T = 298 K; for n (stoichiometry): glycocluster ligands per monomer of lectin. On the procedure:
The affinities of the designed glycoconjugates with lecA and lecB were determined by isothermal titration calorimetry (ITC) by addition of the ligands to a solution of lectin (Figure 3). Dissociation constants (Kd) and thermodynamic parameters (ΔG, ΔH, −TΔS) are listed in Table 1, together with the experimental binding stoichiometry (n), defined as the number of glycocluster ligands per monomer of lectin. […]
Isothermal titration microcalorimetry (ITC):
Recombinant lyophilized lecA and lecB were dissolved in buffer (100 mM Tris-HCl pH 7.5, 6 µM CaCl2,) and degassed. The same procedure was applied for lecB with a different buffer (20mM Tris-HCl pH 7.54 100mM NaCl 100µM CaCl2). Protein concentration varied between 50 and 120 µM depending on the ligand affinity. Carbohydrate ligands were dissolved directly into the same buffer, degassed, and placed in the injection syringe. ITC was performed using a VP-ITC MicroCalorimeter from MicroCal Incorporated. lecA was placed into the 1.4478 mL sample cell, at 25°C. Titration was performed with 10 µL injections of carbohydrate ligands every 300 s. Data were fitted using MicroCal Origin 7 software according to standard procedures. Fitted data yielded the stoichiometry (n), the association constant (Ka), and the enthalpy of binding (∆H). Other thermodynamic parameters (i.e., changes in free energy ∆G and entropy ∆S) were calculated from the equation ∆G = ∆H - T∆S = -[…] in which T is the absolute […]
temperature and R = 8.314 Jmol-1K-1. […]

The target in experiment [2] is T1, lecA. The experiment is described as follows: Dynamic light scattering (DLS), aggregation of lecA. Here is the method: Dynamic light scattering experiments (DLS) were performed on the trivalent and divalent galactose-substituted clusters 1, 16 and 17, as well as the glucose-substituted cluster 13 as a negative control. […] The inability of these systems to efficiently aggregate lectins is in stark contrast to the hexavalent benzene cluster, which may be attributed to differences in rigidity and hydrophobicity between the two systems. It thus appears that the direct diaryl sulfide bridge presents a more optimal degree of semi-rigidity.
Figure 2 Dynamic light scattering experiments of bis-D-galactosyl proparyl cluster 16 with lecA. Distribution by mass for lecA + buffer (left) and lecA + 16 (200 μM, right) at 3 minute intervals. Additional experiments can be found in Supporting Information File 1.

Another experiment deals with PAO1. The experiment is described as follows: PAO1 growth inhibition control test. It is filed as cell-based, Pseudomonas aeruginosa. To be noted: PAO1 in the presence of clusters. Here is the method:
To check that differences observed were not due to bacterial growth defect in the presence of clusters, a growth inhibition control experiment was performed (Figure 4C). […] A) Biofilm growth assay in LB medium. B) Statistical analysis (above, n = 5, duplicate UV measurements) of ethanol-solubilized biofilm recovered from each well (below). C) PAO1 growth inhibition control test.

The subject of a further experiment is PAO1 biofilm. The experiment is described as follows: P. aeruginosa adherence / biofilm formation assay, crystal violet staining. It is filed as cell-based, Pseudomonas aeruginosa. Conditions: 5 mM cluster, 24 h, 30 °C, LB medium, compared to glucose-bearing cluster 13 or absence of cluster. On the procedure: The P. aeruginosa adherence assay was performed in 24 well microplates. Biofilms were obtained after 24 h of incubation at 30 °C in LB medium alone or in the presence or galactose, fucose, or glucose (control)-substituted trivalent clusters and stained with crystal violet (CV).
All reagents were commercial and used without further purification. Solvents were distilled from CaH2.
(§1) Reactions under microwave activation were performed using a Biotage Initiator system. NMR spectra were recorded at 293 K, unless otherwise stated, using a 300 or 400 or 500 MHz spectrometer.
Shifts are referenced relative to deuterated solvent residual peaks. Complete signal assignments from 1D and 2D NMR spectroscopy were based on COSY, HSQC, and HMBC correlations. High-resolution (HR-ESI- QToF) mass spectra were recorded using a Bruker MicroToF-Q II XL spectrometer. Thin-layer chromatography (TLC) was carried out on aluminum sheets coated with silica gel 60 F254 (Merck). […] IR spectra were recorded on a Shimadzu FTIR-8400S IR spectrophotometer and n are expressed in cm-1. NMR spectra were recorded on a Bruker DRX (1H at 300 or 400 MHz, 13C at 75 or 100 MHz) or on a Bruker AV500 spectrometer (1H at 500 MHz, 13C at 125 MHz). HRMS were recorded in electrospray ionization mode on a micro q-tof Micromass in strument (3000 V) with an internal lock mass (H3PO4) and an external lock mass (Leu- […]

The next experiment has as its target lecB (Pseudomonas aeruginosa, UniProt Q9HYN5). The experiment is described as follows: Isothermal titration calorimetry (ITC), binding to lecB. Here is the method: The affinities of the designed glycoconjugates with lecA and lecB were determined by isothermal titration calorimetry (ITC) by addition of the ligands to a solution of lectin (Figure 3). Dissociation constants (Kd) and thermodynamic parameters (ΔG, ΔH, −TΔS) are listed in Table 1, together with the experimental binding stoichiometry (n), defined as the number of glycocluster ligands per monomer of lectin.
The observed β/N values in Table 1, which reflect the relative affinity per unit sugar, are 29 for the trivalent cluster and in the range of 12 for the bivalent clusters. These values most likely reflect sub-site binding by the heterocyclic rings. […] These clusters thus represent a readily accessible, highly soluble, and convenient tool for the investigation of the role of lecA and lecB in the formation of biofilms by Pseudomonas aeruginosa. […]
as §1
Shifts are referenced relative to deuterated solvent residual peaks. […] High-resolution (HR-ESI- QToF) mass spectra were recorded using a Bruker MicroToF-Q II XL spectrometer. […] IR spectra were recorded on a Shimadzu FTIR-8400S IR spectrophotometer and n are expressed in cm-1. […]
(In general: Isothermal titration calorimetry measures the heat released or taken up as one component is titrated into another.)

As a reminder, the Kd is the constant that tells how readily two partners part at equilibrium. A high value points to a looser complex.

T1 sequence (Q05097 2-122): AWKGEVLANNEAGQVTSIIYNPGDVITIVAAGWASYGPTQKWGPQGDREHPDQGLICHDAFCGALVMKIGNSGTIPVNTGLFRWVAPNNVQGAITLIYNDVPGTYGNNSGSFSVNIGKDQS
lecB, sequence (Q9HYN5 entry or part of it): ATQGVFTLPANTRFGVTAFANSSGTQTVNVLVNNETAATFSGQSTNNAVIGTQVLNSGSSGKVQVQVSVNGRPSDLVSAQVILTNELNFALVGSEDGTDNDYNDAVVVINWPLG

At lecA [1] (ITC), `OC[C@H]1O[C@@H](n2cc(CSc3nc(SCc4cn([C@@H]5O[C@H](CO)[C@@H](O)[C@H](O)[C@H]5O)nn4)nc(SCc4cn([C@@H]5O[C@H](CO)[C@@H](O)[C@H](O)[C@H]5O)nn4)n3)nn2)[C@H](O)[C@@H](O)[C@@H]1O` [compound 13, 2,4,6-tris(1-(β-D-glucopyranosyl)triazol-4-ylmethylthio)-1,3,5-triazine] gave a ΔG of less than 0 kcal/mol. The “affinity for the lectin (in words)” value on lecA [1] (ITC, negative control) is “no affinity for the lectin”. Further, on lecA [2], the “aggregation of lecA” value is listed as “only the divalent bis-D-Gal propargyl cluster 16 induces rapid aggregation of lecA”. For the same compound, the bacterial growth defect entry in the experiment with PAO1 is “No growth defect was observed”.

On to `OC[C@H]1O[C@@H](n2cc(CSc3nc(SCc4cn([C@@H]5O[C@H](CO)[C@H](O)[C@H](O)[C@H]5O)nn4)nc(SCc4cn([C@@H]5O[C@H](CO)[C@@H](O)[C@H](O)[C@H]5O)nn4)n3)nn2)[C@H](O)[C@@H](O)[C@H]1O` [compound 17, 2,4-bis(1-(β-D-galactopyranosyl)triazol-4-ylmethylthio)-6-(1-(β-D-glucopyranosyl)triazol-4-ylmethylthio)-1,3,5-triazine], for which, at lecA [1], binding was characterised by a dissociation constant (Kd) of 3.4 µM. Further, at lecA [1] (ITC), the ΔG is -7.48 kcal/mol; the ΔH was -12.2 kcal/mol; the “β/N (improvement in affinity relative to the methyl glycoside, divided by the valency)” value worked out at 14; the “−TΔS” value amounted to 4.71 kcal/mol. Also, the “n (stoichiometry)” value at lecA [1] (ITC) came out at 0.54. Also, the “aggregation of lecA” value at lecA [2] is recorded as “only the divalent bis-D-Gal propargyl cluster 16 induces rapid aggregation of lecA”.

`OC[C@H]1O[C@@H](n2cc(CSc3nc(SCc4cn([C@@H]5O[C@H](CO)[C@H](O)[C@H](O)[C@H]5O)nn4)nc(SCc4cn([C@@H]5O[C@H](CO)[C@H](O)[C@H](O)[C@H]5O)nn4)n3)nn2)[C@H](O)[C@@H](O)[C@H]1O` [compound 1, 2,4,6-tris(1-(β-D-galactopyranosyl)triazol-4-ylmethylthio)-1,3,5-triazine] showed a Kd at lecA [1] of 1.09 µM. Besides, on lecA [1] (ITC), the ΔG was -8.15 kcal/mol; the ΔH is -15.8 kcal/mol; the “β/N (improvement in affinity relative to the methyl glycoside, divided by the valency)” value is recorded as 29; the “−TΔS” value came out at 7.62 kcal/mol. Besides, the “n (stoichiometry)” value on lecA [1] (ITC) is given as 0.31. Moreover, the “aggregation of lecA” value at lecA [2] is given as “only the divalent bis-D-Gal propargyl cluster 16 induces rapid aggregation of lecA”. Also, in the experiment on PAO1 biofilm, the biofilm formation entry is “statistically significant reduction in biofilm formation”. In addition, the bacterial growth defect result in the experiment on PAO1 is reported as “No growth defect was observed”.

As to `CO[C@@H]1O[C@H](CO)[C@H](O)[C@H](O)[C@H]1O` [β-D-GalOMe, methyl β-D-galactoside], the “β/N (improvement in affinity relative to the methyl glycoside, divided by the valency)” value at lecA [1] (ITC) came out at 1.

Turning to `C[C@@H]1O[C@H](n2cc(CSc3nc(SCc4cn([C@H]5O[C@@H](C)[C@@H](O)[C@@H](O)[C@@H]5O)nn4)nc(SCc4cn([C@H]5O[C@@H](C)[C@@H](O)[C@@H](O)[C@@H]5O)nn4)n3)nn2)[C@@H](O)[C@H](O)[C@@H]1O` [compound 14, 2,4,6-tris(1-(β-L-fucopyranosyl)triazol-4-ylmethylthio)-1,3,5-triazine], at lecB, binding was characterised by a dissociation constant (Kd) of 50 µM. In addition, in the experiment on PAO1 biofilm, the biofilm formation entry is on record as “statistically significant reduction in biofilm formation”. Moreover, the bacterial growth defect result in the experiment with PAO1 is recorded as “No growth defect was observed”.

Consider `C#CCSc1nc(SCc2cn([C@@H]3O[C@H](CO)[C@H](O)[C@H](O)[C@H]3O)nn2)nc(SCc2cn([C@@H]3O[C@H](CO)[C@H](O)[C@H](O)[C@H]3O)nn2)n1` [compound 16, 2,4-bis(1-(β-D-galactopyranosyl)triazol-4-ylmethylthio)-6-(prop-2-ynylthio)-1,3,5-triazine], for which the Kd on lecA [1] came out at 4.4 µM. On lecA [1] (ITC), the ΔG was -7.29 kcal/mol; the ΔH was -11.4 kcal/mol; the “β/N (improvement in affinity relative to the methyl glycoside, divided by the valency)” value came to 11; the “−TΔS” value stood at 4.11 kcal/mol. Also, the “n (stoichiometry)” value on lecA [1] (ITC) was found to be 0.79. For the same compound, the “aggregation of lecA” value on lecA [2] is “induces rapid aggregation of lecA”.

The record behind these values is paper PMC4168900, “Expeditive synthesis of trithiotriazine-cored glycoclusters and inhibition of Pseudomonas aeruginosa biofilm formation” (Beilstein Journal of Organic Chemistry, 2014).
